Among the test systems are HOP-62 NSCLC; NCI/ADR-RES ovarian; SK-MEL-2 melanoma; T-47D breast; HCT-116 colon; SK-MEL-28 melanoma; KM12 colon; 786-0 renal; HOP-92 NSCLC; OVCAR-3 ovarian.
What all share (experiment): inhibition of tumour cell growth, NCI panel, 48 h

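Values below derive from 48-hour exposures of cells grown in 96-well plates, with endpoints linearly interpolated between the two concentrations bracketing the appropriate inhibition level. GI50 = concentration required for 50% inhibition of growth. TGI: concentration producing complete growth inhibition.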

`C[C@]12CC[C@@H]3c4ccc(O)cc4CC[C@H]3[C@@H]1CC[C@@H]2NS(=O)(=O)c1cccc(Cl)c1`: the GI50 was 4.46 µM in the assay on HOP-62 NSCLC; 2.39 µM with NCI/ADR-RES ovarian; 2.46 µM in the assay with SK-MEL-2 melanoma; 3.49 µM in the assay on T-47D breast; 1.68 µM with HCT-116 colon; 2.24 µM with SK-MEL-28 melanoma. Further, the GI50 with KM12 colon was 1.96 µM; in the assay on 786-0 renal, 2.47 µM; with HOP-92 NSCLC it was 2.08 µM. Also, the TGI amounted to 15.3 µM in the assay with HOP-62 NSCLC; 8.57 µM in the assay on NCI/ADR-RES ovarian; 5.73 µM in the assay on SK-MEL-2 melanoma; 11.3 µM with T-47D breast; 3.11 µM in the assay on HCT-116 colon; 5.93 µM with SK-MEL-28 melanoma. The TGI with KM12 colon was 4.24 µM; in the assay with 786-0 renal it was 6.13 µM; in the assay on HOP-92 NSCLC it was 5.69 µM.

As for `Cc1c(NC(=O)CCl)c(=O)oc2c(C)c3occc(=O)c3cc12`, the TGI in the assay on HOP-62 NSCLC was 29.8 µM; with NCI/ADR-RES ovarian, 60.8 µM; with T-47D breast, 66.3 µM; with HCT-116 colon it was 25.9 µM; in the assay on SK-MEL-28 melanoma, 39.2 µM; with KM12 colon, 23.9 µM. Also, the TGI in the assay on 786-0 renal was 32.4 µM; in the assay with HOP-92 NSCLC it was 27.5 µM.

For `CC(=Nc1ccccc1)C1=C(O)C(Cc2cccc(F)c2)NC1=O` (stereo not given), the GI50 in the assay on HOP-62 NSCLC was 0.0557 µM; in the assay on NCI/ADR-RES ovarian, 0.0348 µM; in the assay on SK-MEL-2 melanoma, 0.0626 µM; in the assay with T-47D breast, 0.0425 µM; in the assay on HCT-116 colon it was 0.047 µM; in the assay with KM12 colon it was 0.0457 µM. Further, the GI50 was 0.0857 µM with 786-0 renal and 0.0242 µM in the assay with HOP-92 NSCLC. The TGI in the assay with HOP-62 NSCLC was more than 100 µM; with NCI/ADR-RES ovarian it was 0.186 µM; with SK-MEL-2 melanoma, more than 100 µM; in the assay on T-47D breast, more than 100 µM; in the assay with HCT-116 colon, more than 39.4 µM; in the assay with KM12 colon, more than 100 µM. Besides, the values for the TGI with 786-0 renal and with HOP-92 NSCLC were more than 100 µM and more than 21.1 µM, respectively.

As to `CCCCCCCN(CCCCCCC)C(=N)c1ccnc2ccccc12`, the GI50 with HOP-62 NSCLC is 1.16 µM; in the assay with NCI/ADR-RES ovarian it was 1.54 µM; in the assay with SK-MEL-2 melanoma it was 1.71 µM; with T-47D breast, 1.78 µM; in the assay on SK-MEL-28 melanoma, 1.68 µM; with KM12 colon, 1.82 µM. The GI50 was 1.45 µM in the assay with OVCAR-3 ovarian, 1.55 µM in the assay on 786-0 renal and 1.33 µM with HOP-92 NSCLC. For the same compound, the TGI in the assay on HOP-62 NSCLC is 2.65 µM; in the assay with NCI/ADR-RES ovarian, 2.96 µM; in the assay on SK-MEL-2 melanoma, 3.35 µM; in the assay with T-47D breast, 4.3 µM; in the assay on SK-MEL-28 melanoma, 3.21 µM; in the assay with KM12 colon, 3.49 µM. The TGI worked out at 2.84 µM with OVCAR-3 ovarian, 2.97 µM with 786-0 renal and 3 µM with HOP-92 NSCLC.

For the compound `O=C1NC(=O)[C@@]2(CC[C@@H](O)C2)c2ccncc21`, the TGI in the assay with NCI/ADR-RES ovarian, with SK-MEL-2 melanoma, in the assay with T-47D breast, in the assay on HCT-116 colon, in the assay with SK-MEL-28 melanoma and in the assay on KM12 colon was more than 100 µM each time. For the same compound, the TGI in the assay on 786-0 renal and in the assay with HOP-92 NSCLC was more than 100 µM throughout.

Turning to `CC/C=C\C[C@H](O)C/C=C1/C(=O)C=C[C@@H]1C/C=C\CCCC(=O)OC(C)C`, the GI50 in the assay with HOP-62 NSCLC was 2.45 µM; with NCI/ADR-RES ovarian it was 3.11 µM; in the assay with SK-MEL-2 melanoma, 2.02 µM; in the assay on T-47D breast, 1.37 µM; with HCT-116 colon, 0.245 µM; in the assay on SK-MEL-28 melanoma, 1.41 µM. The GI50 was 1.36 µM with KM12 colon, 0.483 µM in the assay on OVCAR-3 ovarian, 1.9 µM in the assay on 786-0 renal and 2.25 µM in the assay on HOP-92 NSCLC. Also, the TGI in the assay with HOP-62 NSCLC was determined as 6.01 µM; in the assay with NCI/ADR-RES ovarian it was 17.2 µM; in the assay with SK-MEL-2 melanoma, 4.77 µM; with T-47D breast, 7 µM; with HCT-116 colon, 0.64 µM; in the assay on SK-MEL-28 melanoma, 3.05 µM. The TGI with KM12 colon was determined as 3.08 µM; with OVCAR-3 ovarian it was 1.71 µM; with 786-0 renal, 3.72 µM; in the assay with HOP-92 NSCLC, 4.88 µM.

Consider `COc1cccc(OC(=O)c2ccc(C(F)(F)F)nc2Nc2c(C)cccc2Cl)c1`, for which the GI50 with HOP-62 NSCLC was 25.9 µM; in the assay on SK-MEL-2 melanoma it was 19.4 µM; in the assay on T-47D breast, 18.7 µM; in the assay with HCT-116 colon it was 25.6 µM; with SK-MEL-28 melanoma, 20.5 µM; in the assay on OVCAR-3 ovarian, 22.8 µM. Moreover, the results for the GI50 in the assay with 786-0 renal and with HOP-92 NSCLC were 27.7 µM and 17.6 µM, respectively. In addition, the TGI with HOP-62 NSCLC was 82.3 µM; with SK-MEL-2 melanoma, 45.9 µM; in the assay with T-47D breast it was more than 100 µM; with HCT-116 colon, more than 100 µM; in the assay with SK-MEL-28 melanoma, 71.6 µM; in the assay with OVCAR-3 ovarian, 69.2 µM. The values for the TGI in the assay with 786-0 renal and in the assay with HOP-92 NSCLC were more than 100 µM and 41.4 µM, respectively.

On to `O=C1CSC(c2ccc(-c3nc4ccccc4[nH]3)cc2)=N1`, for which the GI50 was more than 50 µM in the assay with HOP-62 NSCLC; more than 50 µM in the assay with NCI/ADR-RES ovarian; 19 µM in the assay on SK-MEL-2 melanoma; more than 50 µM in the assay on T-47D breast; 18.6 µM in the assay on HCT-116 colon; 22.8 µM in the assay on KM12 colon. The GI50 is 33.8 µM in the assay with OVCAR-3 ovarian, 42.5 µM in the assay on 786-0 renal and more than 50 µM in the assay with HOP-92 NSCLC. In addition, the TGI with HOP-62 NSCLC, in the assay with NCI/ADR-RES ovarian, in the assay with SK-MEL-2 melanoma, with T-47D breast, with HCT-116 colon and in the assay on KM12 colon was more than 50 µM throughout. Moreover, the TGI with OVCAR-3 ovarian, in the assay with 786-0 renal and with HOP-92 NSCLC was more than 50 µM in each case.

As to `CCCCCCCCCCCC[N+](C)(C)Cc1ccccc1`, the GI50 in the assay on HOP-62 NSCLC was 2.69 µM; with NCI/ADR-RES ovarian, 41.9 µM; in the assay on SK-MEL-2 melanoma, 1.97 µM; with T-47D breast, 2.68 µM; in the assay on HCT-116 colon it was 1.33 µM; with SK-MEL-28 melanoma, 2.06 µM. For the same compound, the GI50 with KM12 colon was 1.48 µM; in the assay with OVCAR-3 ovarian, 1.71 µM; in the assay with 786-0 renal, 2.37 µM. Also, the TGI in the assay on HOP-62 NSCLC is 7.27 µM; in the assay on NCI/ADR-RES ovarian, more than 100 µM; with SK-MEL-2 melanoma, 3.6 µM; with T-47D breast, 15.5 µM; in the assay on HCT-116 colon it was 2.8 µM; in the assay on SK-MEL-28 melanoma, 4.34 µM. The TGI was 3.14 µM in the assay on KM12 colon, 4.02 µM in the assay on OVCAR-3 ovarian and 6.15 µM with 786-0 renal.
